Experimental findings from EP0390654B1, “Aminobenzenesulfonic acid derivative” (Mitsubishi Chemical Corporation, priority 1989, dated 1990) are described below.

Data set [1] concerns Papillary muscle of right ventricle. Kind of data set: Inhibition of the cardiotonic activity of isoproterenol (developed tension) in isolated papillary muscle, as index of inhibiting Ca²⁺ overload into cells. The arrangement: species or system male Hartley-strain guinea-pigs. Conditions: Drug concentration 10⁻³ M; inhibition of developed tension increased by isoproterenol. As to the method:
For evaluation of the extent of inhibiting Ca²⁺ overload into cells, which is the pharmacological activity of the compound of the present invention, inhibition of the cardiotonic activity of isoproterenol by the compounds of the present invention was measured.
That is to say, since isoproterenol has been known to cause Ca²⁺ overload by excessive Ca²⁺ influx into cardiac muscle cells (Fleckenstein A., Janke J., Doring H., Leder O.; Recent advances in Studies on cardiac structure and metabolism, Myocardial Biology, Vol. 4, pp. 563 - 580 (1974)), the compound which inhibits the activity of isoproterenol can inhibit Ca²⁺ overload into cells.
Papillary muscle of right ventricle isolated from male Hartley-strain guinea-pigs (body weight: 250 to 350 g) was suspended in an organ bath filled with a nutrient solution (Krebs-Henseleit solution). The temperature of the nutrient solution was maintained at 32 °C, and a gas mixture of 95 % oxygen and 5 % carbon dioxide was aerated. The papillary muscle was applied with a resting tension of about 0.5 g, and stimulated with platinum electrodes by an electric pulse wave of a duration of 1 msec, a frequency of 1 Hz and a voltage higher by 15 % than the threshold value. The developed tension of the papillary muscle was measured through a tension transducer and recorded with a polygraph. After the specimen was stabilized for about 90 minutes, isoproterenol ([…]) was added into the organ bath so that developed tension could be increased by 100 % or more, and at the point when the maximum reaction was obtained, the compounds of the present invention were added into the organ bath, and % inhibition of the developed tension increased by isoproterenol was measured.

The next data set has as its system isolated heart of rat. Kind of data set: Protective effect on ischemic myocardium, Langendorff-perfused isolated heart (ischemia 90 minutes, then reperfusion). More on the design: species or system Male Wister rats. The note with it: for Developed tension (%): % of value in equilibration period, 30 minutes after reperfusion, Control 32.5; for Rise in resting tension: just before reperfusion, Control 0.72. As for the experimental part:
For the evaluation of the protective effect of ischemic myocardium, two parameters (rise in resting tension and decrease in developed tension), indices of myocardial injury, were measured in the myocardial ischemic model using isolated heart of rat.
It is reported that drugs which have the protective effect on ischemic myocardium attenuates the rise in resting tension and decrease in developed tension induced by Ca²⁺ overload into myocardial cells when the heart is exposed to ischemia. (Araki, H. & Lefer, AM.: Role of prostacyclin in the preservation of ischemic myocardial tissue in the perfused cat heart. Circ. Res., 47: 757-763, 1980).
Male Wister rats (250-350 g) were killed and their hearts excised. The hearts were then arranged for coronary perfusion with Krebs-Henseleit solution (37 °C, aerated with a gas mixture of 95 % O₂ - 5 % CO₂) according to the method of Langendorff. Tension development was monitored with a force displacement transducer attached via a cotton ligature to the ventricular apex with a resting tension of 1.5 g. After a equilibration period of 1 hour, myocardial ischemia was induced by lowering perfusion pressure from 80 cm H₂O to 12 cm H₂O for 90 minutes. The heart was then reperfused with the previous perfusion pressure of 80 cm H₂O. Rise in resting tension (g) just before reperfusion and developed tension (%) (% of value in equilibration period) 30 minutes after reperfusion were measured.

Data set [2] can be described thus: Acute toxicity, 50 % lethal dose (LD₅₀). The note with it: mouse, in vivo, male mice. As to the method: Among compounds of the present invention, the compound No. 110 was tested for its acute toxicity.
Compound No. 110 was administered to male mice (18 - 25 g) for determination of 50 % lethal dose (LD₅₀). Two routes of administration tested were as follows: • 1) intravenous (into tail vein) administration in which calculation of LD₅₀ was according to up and down method and • 2) oral administration in which calculation of LD₅₀ was according to probit method. Compound No. 110 was diluted in physiological salt solution (0.9 % sodium chloride) for intravenous administration and distilled water for oral administration.

The term LD50 denotes the dose expected to kill half of the subjects tested. High values mean lower toxicity, low ones greater toxicity.

Take `CCCc1ccc(N2CCN(Cc3ccc(OC)c(OC)c3OC)CC2)c(S(=O)(=O)O)c1` [Compound No. 69, 2-[4-(2,3,4-trimethoxybenzyl)-1-piperazinyl]-5-n-propylbenzenesulfonic acid]: the “Inhibition (%)” value in data set [1] came to 21.4%. Turning to `O=S(=O)(O)c1cc(Cl)ccc1N1CCNCC1` [compound 93], the “Inhibition (%)” value in data set [1] stood at 28.0%. In the case of `O=S(=O)(O)c1cc(-c2ccccc2)ccc1N1CCNCC1` [compound 91], the “Inhibition (%)” value in data set [1] is on record as 17.2%. For the molecule `CC(C)c1ccc(N2CCNCC2)c(S(=O)(=O)O)c1` [compound 111], the “Inhibition (%)” value in data set [1] worked out at 27.5%.

For the molecule `CCCc1ccc(N2CCCN(C)CC2)c(S(=O)(=O)O)c1` [compound 89], in the data set on isolated heart of rat (Drug concentration 10⁻⁵ M), the “Developed tension (%)” value is reported as 58.4% and the “Rise in resting tension” value is on record as 0.25 g. For the molecule `O=S(=O)(O)c1cc(Br)ccc1N1CCNCC1` [compound 94], in data set [1], the “Inhibition (%)” value turned out to be 18.5%.

As for `CCCc1ccc(N2CCNCC2)c(S(=O)(=O)O)c1.Cl` [Compound No. 110, 2-(1-piperazinyl)-5-n-propylbenzenesulfonic acid hydrochloride], the 50% lethal dose (LD50) in data set [2] (Intravenous administration (tail vein), up and down method) turned out to be 63 mg/kg; in data set [2] (Oral administration, probit method), 2800 mg/kg. Besides, the “Developed tension (%)” value stood at 77.0% with isolated heart of rat (Drug concentration 10⁻⁵ M), 65.4% with isolated heart of rat (Drug concentration 10⁻⁶ M) and 32.2% in the data set with isolated heart of rat (Drug concentration 10⁻⁷ M). The entries for the “Rise in resting tension” value in the data set on isolated heart of rat (Drug concentration 10⁻⁵ M), with isolated heart of rat (Drug concentration 10⁻⁶ M) and in the data set on isolated heart of rat (Drug concentration 10⁻⁷ M) were 0.09 g, 0.33 g and 0.48 g, respectively.

For the molecule `CCCc1ccc(N2CCN(Cc3ccc(OC)c(OC)c3)CC2)c(S(=O)(=O)O)c1` [Compound No. 66], the “Inhibition (%)” value in data set [1] turned out to be 52.4%. In the case of `Cc1ccc(N2CCNCC2)c(S(=O)(=O)O)c1` [Compound No. 12, 2-(1-piperazinyl)-5-methylbenzenesulfonic acid], the “Inhibition (%)” value in data set [1] amounted to 18.5%.
